Converted amounts (≈) assume the structure as drawn.
What was measured:
L1210 = experiment: Antiproliferative activity against mouse L1210 cells after 48 hrs by Coulter counting analysis; format: functional, cell-based; conditions: L1210, 48 h
FM3A = experiment: Antiproliferative activity against mouse FM3A cells after 48 hrs by Coulter counting analysis; format: functional, cell-based
CCRF-CEM = experiment: Antiproliferative activity against human CEM cells after 72 hrs by Coulter counting analysis; format: functional, cell-based
HeLa = experiment: Antiproliferative activity against human HeLa cells after 96 hrs by Coulter counting analysis; format: functional, cell-based
[1] = target: Bone morphogenetic protein receptor type-1B (Homo sapiens) (UniProt O00238); experiment: Inhibition of BMPR1b assessed as activity remaining at 10 uM by competitive binding inhibition assay
Sequence of Bone morphogenetic protein receptor type-1B (Homo sapiens) (O00238 whole entry): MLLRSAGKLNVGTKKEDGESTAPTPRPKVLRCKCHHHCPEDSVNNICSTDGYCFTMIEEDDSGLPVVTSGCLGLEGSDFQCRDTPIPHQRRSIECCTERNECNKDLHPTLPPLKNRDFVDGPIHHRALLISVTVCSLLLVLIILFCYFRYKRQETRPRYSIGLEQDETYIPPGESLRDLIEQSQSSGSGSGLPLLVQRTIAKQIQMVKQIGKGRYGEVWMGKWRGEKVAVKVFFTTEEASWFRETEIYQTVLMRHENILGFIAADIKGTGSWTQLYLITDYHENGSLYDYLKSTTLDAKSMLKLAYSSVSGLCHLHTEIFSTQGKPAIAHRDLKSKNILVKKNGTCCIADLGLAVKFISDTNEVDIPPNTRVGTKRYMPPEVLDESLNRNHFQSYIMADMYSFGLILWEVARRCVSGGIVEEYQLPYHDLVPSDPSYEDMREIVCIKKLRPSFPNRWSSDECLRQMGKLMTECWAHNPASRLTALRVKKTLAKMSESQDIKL

SMILES	IC50 (L1210)	IC50 (FM3A)	IC50 (CCRF-CEM)	IC50 (HeLa)	Activity [1]
CC[Si](CC)(CC)O[C@@H]1[C@H](O[Si](CC)(CC)CC)[C@@H](CNC(=O)NC)O[C@H]1n1cnc2c(NC(=O)Nc3ccccc3)ncnc21	3.8 mg/L (≈ 5.66 µM)	3 mg/L (≈ 4.47 µM)	4.2 mg/L (≈ 6.26 µM)	3.7 mg/L (≈ 5.51 µM)	100%
CNC(=O)NC[C@H]1O[C@@H](n2cnc3c(NC(=O)Nc4ccccc4)ncnc32)[C@H](O[Si](C(C)C)(C(C)C)C(C)C)[C@@H]1O[Si](C(C)C)(C(C)C)C(C)C	> 200 mg/L	> 200 mg/L	142 mg/L (≈ 188 µM)	≥ 200 mg/L	100%
CCCCCCCCCCCCCCCC(=O)O[C@@H]1[C@H](OC(=O)CCCCCCCCCCCCCCC)[C@@H](CNC(=O)NC)O[C@H]1n1cnc2c(NC(=O)Nc3ccccc3)ncnc21	> 100 mg/L	> 200 mg/L	> 100 mg/L	> 100 mg/L	
CCCCCCCC(=O)O[C@@H]1[C@H](OC(=O)CCCCCCC)[C@@H](CNC(=O)NC)O[C@H]1n1cnc2c(NC(=O)Nc3ccccc3)ncnc21	11 mg/L (≈ 15.8 µM)	32 mg/L (≈ 46.1 µM)	12 mg/L (≈ 17.3 µM)	16 mg/L (≈ 23 µM)	
CNC(=O)NC[C@H]1O[C@@H](n2cnc3c(NC(=O)Nc4ccccc4)ncnc32)[C@H](OC(C)=O)[C@@H]1OC(C)=O	97 mg/L (≈ 184 µM)	150 mg/L (≈ 285 µM)	107 mg/L (≈ 203 µM)	> 200 mg/L	95%
CCCCCC(=O)O[C@@H]1[C@H](OC(=O)CCCCC)[C@@H](CNC(=O)NC)O[C@H]1n1cnc2c(NC(=O)Nc3ccccc3)ncnc21	9.5 mg/L (≈ 14.9 µM)	20 mg/L (≈ 31.3 µM)	10 mg/L (≈ 15.7 µM)	15 mg/L (≈ 23.5 µM)	
CNC(=O)NC[C@H]1O[C@@H](n2cnc3c(NC(=O)Nc4ccccc4)ncnc32)[C@H](O[Si](c2ccccc2)(c2ccccc2)C(C)(C)C)[C@@H]1O[Si](c1ccccc1)(c1ccccc1)C(C)(C)C	> 200 mg/L	> 200 mg/L	≥ 200 mg/L	104 mg/L (≈ 113 µM)	100%
CNC(=O)NC[C@H]1O[C@@H](n2cnc3c(NC(=O)Nc4ccccc4)ncnc32)[C@H](OC(=O)C(C)C)[C@@H]1OC(=O)C(C)C	29 mg/L (≈ 49.8 µM)	44 mg/L (≈ 75.5 µM)	28 mg/L (≈ 48.1 µM)	73 mg/L (≈ 125 µM)	100%
CNC(=O)NC[C@H]1O[C@@H](n2cnc3c(NC(=O)Nc4ccccc4)ncnc32)[C@H](OC(=O)c2ccccc2)[C@@H]1OC(=O)c1ccccc1	154 mg/L (≈ 237 µM)	61 mg/L (≈ 93.8 µM)	> 200 mg/L	> 200 mg/L	100%
CNC(=O)NC[C@H]1O[C@@H](n2cnc3c(N)ncnc32)[C@H](OC(C)=O)[C@@H]1OC(C)=O	112 mg/L (≈ 275 µM)	> 200 mg/L	> 200 mg/L	> 200 mg/L	
CNC(=O)NC[C@H]1O[C@@H](n2cnc3c(NC(=O)Nc4ccccc4)ncnc32)[C@H](OC(=O)C(C)(C)C)[C@@H]1OC(=O)C(C)(C)C	9.7 mg/L (≈ 15.9 µM)	15 mg/L (≈ 24.6 µM)	20 mg/L (≈ 32.8 µM)	17 mg/L (≈ 27.8 µM)	
CCCCCCCCCC(=O)O[C@@H]1[C@H](OC(=O)CCCCCCCCC)[C@@H](CNC(=O)NC)O[C@H]1n1cnc2c(NC(=O)Nc3ccccc3)ncnc21	> 100 mg/L	140 mg/L (≈ 186 µM)	> 100 mg/L	> 100 mg/L	
CNC(=O)NC[C@H]1O[C@@H](n2cnc3c(N)ncnc32)[C@H](OC(=O)C(C)C)[C@@H]1OC(=O)C(C)C	87 mg/L (≈ 188 µM)	107 mg/L (≈ 231 µM)	88 mg/L (≈ 190 µM)	99 mg/L (≈ 214 µM)	
CNC(=O)NC[C@H]1O[C@@H](n2cnc3c(N)ncnc32)[C@H](OC(=O)c2ccccc2)[C@@H]1OC(=O)c1ccccc1	16 mg/L (≈ 30.1 µM)	36 mg/L (≈ 67.7 µM)	19 mg/L (≈ 35.7 µM)	40 mg/L (≈ 75.3 µM)	
CCCC(=O)O[C@@H]1[C@H](OC(=O)CCC)[C@@H](CNC(=O)NC)O[C@H]1n1cnc2c(NC(=O)Nc3ccccc3)ncnc21	20 mg/L (≈ 34.3 µM)	18 mg/L (≈ 30.9 µM)	29 mg/L (≈ 49.8 µM)	58 mg/L (≈ 99.6 µM)	

From ChEMBL document CHEMBL2086355, “Synthesis and SAR of 2',3'-bis-O-substituted N(6), 5'-bis-ureidoadenosine derivatives: implications for prodrug delivery and mechanism of action” (Bioorg Med Chem Lett, 2012)
